In patent US5075289A, “9-R-azacyclic erythromycin antibiotics” (priority 1988, dated 1991):
≈ marks a conversion by molar mass, not a printed value. Like-named read-outs stand apart in the source and are kept apart here.

Key:
[1] = test system: Staphylococcus aureus 45 RAR 2; assay: microbe, parasite or virus in culture; type: cell-based; settings: 45RAR2
Description: (§1) The antimicrobial spectra of a number of compounds of the invention were tested by the following method:
(§2) Twelve petri dishes containing successive aqueous dilutions of the test compound mixed with 10 ml of sterilized Brain Heart Infusion agar (Difco 0418-01-5) are prepared. Each plate is inoculated with 1:100 (or 1:10 for slow growing strains, primarily Micrococcus and Streptococcus) dilutions of up to 32 different microorganisms, using a Steers replicator block The inoculated plates are incubated at 35°-37° C. for 20-24 hours. In addition, a control plate, using BHI agar containing no test compound, is prepared and incubated at the beginning and end of each test.
(§3) An additional plate containing a compound having known susceptibility patterns for the organisms being tested and belonging to the same antibiotic class as the test compound is also prepared and incubated as a further control, as well as to provide test-to-test comparability. Erythromycin A was used for this purpose.
(§4) After incubation, each disk is read. The MIC is defined as the lowest concentration of drug yielding no growth, a slight haze, or sparsely isolated colonies on the inoculum spot as compared to the growth control.

[2] = test system: Streptococcus pyogenes EES61; assay: In vitro antibacterial activity, agar dilution MIC; type: cell-based; settings: S. pyogenes EES61, Brain Heart Infusion agar, 20-24 hours, read-out: MIC
Description: as §1, §2, §3, §4

[3] = test system: Staphylococcus aureus CMX 686B; assay: In vitro antibacterial activity, agar dilution MIC; type: cell-based; settings: CMX686B, S. aureus CMX 686B, Brain Heart Infusion agar, 20-24 hours, read-out: MIC
Description: as §1, §2, §3, §4

Escherichia coli SS = assay: In vitro antibacterial activity, agar dilution MIC; type: cell-based; settings: read-out: MIC
Description: as §1, §2, §3, §4

[4] = test system: Streptococcus pyogenes 2548 INDUC; assay: In vitro antibacterial activity, agar dilution MIC; type: cell-based; settings: S. pyogenes 2548 INDUC, Brain Heart Infusion agar, 20-24 hours, read-out: MIC
Description: as §1, §2, §3, §4

[5] = test system: Micrococcus luteus ATCC 9341; assay: In vitro antibacterial activity, agar dilution MIC; type: cell-based; settings: ATCC9341, M. luteus ATCC 9341, Brain Heart Infusion agar, 20-24 hours, read-out: MIC
Description: as §1, §2, §3, §4

[6] = test system: Micrococcus luteus ATCC 4698; assay: In vitro antibacterial activity, agar dilution MIC; type: cell-based
Description: as §1, §2, §3, §4

[7] = test system: Staphylococcus aureus A5177; assay: In vitro antibacterial activity, agar dilution MIC; type: cell-based; settings: S. aureus A5177, Brain Heart Infusion agar, 20-24 hours, read-out: MIC
Description: as §1, §2, §3, §4

[8] = test system: Staphylococcus epidermidis 3519; assay: In vitro antibacterial activity, agar dilution MIC; type: cell-based; settings: S. epidermidis 3519, Brain Heart Infusion agar, 20-24 hours, read-out: MIC
Description: as §1, §2, §3, §4

[9] = test system: Streptococcus agalactiae CMX 508; assay: In vitro antibacterial activity, agar dilution MIC; type: cell-based; settings: CMX508, S. agalactiae CMX 508, Brain Heart Infusion agar, 20-24 hours, read-out: MIC
Description: as §1, §2, §3, §4

[10] = test system: Staphylococcus aureus CMX 503A; assay: In vitro antibacterial activity, agar dilution MIC; type: cell-based; settings: CMX503A, S. aureus CMX 503A, Brain Heart Infusion agar, 20-24 hours, read-out: MIC
Description: as §1, §2, §3, §4

[11] = test system: Enterococcus faecium ATCC 8043; assay: In vitro antibacterial activity, agar dilution MIC; type: cell-based; settings: ATCC8043, read-out: MIC
Description: as §1, §2, §3, §4

Escherichia coli H560 = assay: In vitro antibacterial activity, agar dilution MIC; type: cell-based; settings: E. coli H560, Brain Heart Infusion agar, 20-24 hours, read-out: MIC
Description: as §1, §2, §3, §4

[12] = test system: Streptococcus bovis A5169; assay: In vitro antibacterial activity, agar dilution MIC; type: cell-based; settings: read-out: MIC
Description: as §1, §2, §3, §4

[13] = test system: Staphylococcus aureus ATCC 6538P; assay: In vitro antibacterial activity, agar dilution MIC; type: cell-based; settings: ATCC6538P, S. aureus ATCC 6538P, Brain Heart Infusion agar, 35-37° C., 20-24 hours, read-out: MIC
Description: as §1, §2, §3, §4

Escherichia coli DC-2 = assay: In vitro antibacterial activity, agar dilution MIC; type: cell-based
Description: as §1, §2, §3, §4

[14] = test system: Staphylococcus aureus CMX 553; assay: In vitro antibacterial activity, agar dilution MIC; type: cell-based; settings: CMX553, S. aureus CMX 553, Brain Heart Infusion agar, 20-24 hours, read-out: MIC
Description: as §1, §2, §3, §4

Escherichia coli Juhl = assay: In vitro antibacterial activity, agar dilution MIC; type: cell-based
Description: as §1, §2, §3, §4

Staphylococcus aureus 45 = assay: In vitro antibacterial activity, agar dilution MIC; type: cell-based
Description: as §1, §2, §3, §4

[15] = test system: Streptococcus pyogenes 930 CONST; assay: In vitro antibacterial activity, agar dilution MIC; type: cell-based; settings: 930CONST
Description: as §1, §2, §3, §4

[16] = test system: Streptococcus pyogenes C-203; assay: In-vivo mouse protection assay (acute mouse protection test); design: species or system Swiss albino mice
Description: (§5) The acute mouse protection test is conducted on ten mice with each of three levels of drug. Mouse mortality is used to calculate an ED50 value, i.e., the dose of drug required to protect 50% of the test animals against death due to the inoculum challenge.
(§6) The acute mouse protection test is conducted on female, Swiss albino mice, 18-20 grams in weight. […] To check the potency of the inoculum, a titration of the indicated test organism is carried out in control animals. The treatment group of animals is dosed with the test compound at 1 and 5 hours post infection and observed for 7 days. The ED50 values are calculated using the mortality data collected.

[17] = test system: Staphylococcus aureus (NCTC 10649); assay: as above; design: species or system Swiss albino mice
Description: as §5, §6

[18] = test system: Streptococcus pneumoniae (6303); assay: as above; design: species or system Swiss albino mice; settings: 168 h
Description: as §5, §6

[19] = test system: Staphylococcus aureus NCTC 10649; assay: In vitro antibacterial activity, agar dilution MIC; type: cell-based; settings: NCTC10649, S. aureus NCTC 10649, Brain Heart Infusion agar, 20-24 hours, read-out: MIC
Description: as §1, §2, §3, §4

[20] = test system: Staphylococcus aureus 642A; assay: In vitro antibacterial activity, agar dilution MIC; type: cell-based; settings: S. aureus 642A, Brain Heart Infusion agar, 20-24 hours, read-out: MIC
Description: as §1, §2, §3, §4

Row | SMILES | MIC [1] [µg/mL] | MIC [2] [µg/mL] | MIC [3] [µg/mL] | MIC (Escherichia coli SS) [µg/mL] | MIC [4] [µg/mL] | MIC [5] [µg/mL] | MIC [7] [µg/mL] | MIC [8] [µg/mL] | MIC [9] [µg/mL] | MIC [10] [µg/mL] | MIC [11] [µg/mL] | MIC (Escherichia coli H560) [µg/mL] | MIC [12] [µg/mL] | MIC [13] [µg/mL] | MIC [14] [µg/mL] | MIC (Escherichia coli Juhl) [µg/mL] | MIC [15] [µg/mL] | ED50 ([18]; po) [mg/kg] | further results
1 | CC[C@H]1OC(=O)[C@H](C)[C@@H](O[C@H]2C[C@@](C)(OC)[C@@H](N)[C@H](C)O2)[C@H](C)[C@@H](O[C@@H]2O[C@H](C)C[C@H](N(C)C)[C@H]2O)[C@](C)(O)C[C@@H](C)[C@@H](N2CCCCC2)[C@H](C)[C@@H](O)[C@]1(C)O [Example 31] | 0.78 (≈ 0.972 µM) | 0.05 (≈ 0.0623 µM) | 0.39 (≈ 0.486 µM) | 0.2 (≈ 0.249 µM) | 6.2 (≈ 7.73 µM) | 0.05 (≈ 0.0623 µM) | 6.2 (≈ 7.73 µM) | 0.78 (≈ 0.972 µM) | 0.05 (≈ 0.0623 µM) | 0.78 (≈ 0.972 µM) | 0.2 (≈ 0.249 µM) | 1.56 (≈ 1.94 µM) | 0.02 (≈ 0.0249 µM) | 0.78 (≈ 0.972 µM) | 0.39 (≈ 0.486 µM) | 6.2 (≈ 7.73 µM) | > 100 | 13.8 | MIC ([6]; ATCC4698): 0.39 µg/mL (≈ 0.486 µM); MIC (Escherichia coli DC-2; DC2, E. coli DC-2, Brain Heart Infusion agar, 20-24 hours, read-out: MIC): 3.1 µg/mL (≈ 3.86 µM); MIC (Staphylococcus aureus 45; 45): 0.39 µg/mL (≈ 0.486 µM); ED50 ([16]; C203, 168 h, Oral, S. pyogenes C-203, dosed 1 and 5 hours post infection, 7 days, read-out: ED50): 27.9 mg/kg; ED50 ([16]; C203, sc, 168 h, Subcutaneous, S. pyogenes C-203, dosed 1 and 5 hours post infection, 7 days, read-out: ED50): 0.8 mg/kg; ED50 ([17]; NCTC10649, 168 h, Oral, S. aureus NCTC 10649, dosed 1 and 5 hours post infection, 7 days, read-out: ED50): 125 mg/kg; ED50 ([17]; NCTC10649, sc, 168 h, Subcutaneous, S. aureus NCTC 10649, dosed 1 and 5 hours post infection, 7 days, read-out: ED50): 25.7 mg/kg; ED50 ([18]; sc, Subcutaneous, S. pneumoniae 6303, dosed 1 and 5 hours post infection, 7 days, read-out: ED50): 1 mg/kg
2 | CC[C@H]1OC(=O)[C@H](C)[C@@H](O[C@H]2C[C@@](C)(OC)[C@H](N)[C@H](C)O2)[C@H](C)[C@@H](O[C@@H]2O[C@H](C)C[C@H](N(C)C)[C@H]2O)[C@](C)(O)C[C@@H](C)[C@@H](N2CCCCC2)[C@H](C)[C@@H](O)[C@]1(C)O [Example 32] | 1.56 (≈ 1.94 µM) | 0.1 (≈ 0.125 µM) | 0.78 (≈ 0.972 µM) | 0.2 (≈ 0.249 µM) | 6.2 (≈ 7.73 µM) | 0.05 (≈ 0.0623 µM) | 6.2 (≈ 7.73 µM) | 0.78 (≈ 0.972 µM) | 0.1 (≈ 0.125 µM) | 0.39 (≈ 0.486 µM) | 0.2 (≈ 0.249 µM) | 3.1 (≈ 3.86 µM) | 0.02 (≈ 0.0249 µM) | 0.78 (≈ 0.972 µM) | 0.78 (≈ 0.972 µM) | 25 (≈ 31.2 µM) | > 100 |  | MIC ([6]; ATCC4698, M. luteus ATCC 4698, Brain Heart Infusion agar, 20-24 hours, read-out: MIC): 0.78 µg/mL (≈ 0.972 µM); MIC [19]: 1.56 µg/mL (≈ 1.94 µM); MIC [20]: 1.56 µg/mL (≈ 1.94 µM); MIC (Escherichia coli DC-2; DC2): 12.5 µg/mL (≈ 15.6 µM); MIC (Staphylococcus aureus 45; S. aureus 45, Brain Heart Infusion agar, 20-24 hours, read-out: MIC): 0.78 µg/mL (≈ 0.972 µM)
3 | CC[C@H]1OC(=O)[C@H](C)[C@@H](O[C@H]2C[C@@](C)(OC)[C@@H](O)[C@H](C)O2)[C@H](C)[C@@H](O[C@@H]2O[C@H](C)C[C@H](N(C)C)[C@H]2O)[C@](C)(O)C[C@@H](C)C(=O)[C@H](C)[C@@H](O)[C@]1(C)O [erythromycin] |  |  |  |  |  |  |  |  |  |  |  |  |  |  |  |  |  | 21.5 | ED50 ([16]; C203, po, 168 h): 12 mg/kg; ED50 ([16]; C203, sc, 168 h): 1.8 mg/kg; ED50 ([17]; NCTC10649, po, 168 h): 98 mg/kg; ED50 ([17]; NCTC10649, sc, 168 h): 20 mg/kg; ED50 ([18]; sc): 0.9 mg/kg
